Reference: patent EP1673349B1, “BENZIMIDAZOLE DERIVATIVES: PREPARATION AND PHARMACEUTICAL APPLICATIONS” (priority 2003, dated 2005)
Read-outs that look alike come from different tables or passages of the source.

Experiments:
MDA-MB435 = test: Cell-based proliferation assay (cyquant), MDA-MB435; set-up: species or system human;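 further: GI50 taken from dose–response curves over a range of compound concentrations, with cell growth quantified by the CyQUANT proliferation assay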
Method: (§2) Human colon cancer cell lines (Colo205 and HCT116), human breast cancer cell lines (MDA-MB435 and MDA-MB231), and human lung cancer cell line (A549) were obtained from ATCC. […] MDA-MB435 cells were cultivated in DMEM containing 2 mM L-Glutamine, 5% FBS. HCT116 cells were cultivated in IMEM containing 2 mM L-Glutamine, 5% FBS. A549 and Colo205 cells were seeded in 96-wells plate at 2000 and 5000 cells per well respectively. MDA-MB435, HCT116, MDA-MB231 cells were seeded in 96-wells plate at 6000 cells per well. The plates were incubated at 37°C, 5% CO2, for 24 h. Cells, were treated with compounds at various concentration for 96 h. Cell growth was then monitored using cyquant cell proliferation assay (Invitrogen Pte Ltd). Dose response curves were plotted to determine GI50 values for the compounds using XL-fist.

acetylated H2A = test: Histone acetylation assay by immuno-blotting, acetylated H2A; type: cell-based, human; conditions: Colo205 cells, 0.1, 1, 5 and 10 µM, 24 h, western blot
Method: (§1) A hallmark of histone deacetylase (HDAC) inhibition is the increase in the acetylation level of histones. Histone acetylation, including H3, H4 and H2A can be detected by immuno-blotting (westem-blot). Colo205 cells, approximately 1.5 x10^6 cells/ 10 cm dish, were seeded in the previously described medium, cultivated for 24 h and subsequently treated with HDAC inhibitory agents at 0.1, 1; 5 and 10 µM final concentration. After 24 h, cells were harvested and lysed according to the instruction from Sigma Mammalian Cell Lysis Kit. The protein concentration was quantified using BCA method (Sigma Pte Ltd). The protein lysate was separated using 4-12% bis-tris SDS-PAGE gel (Invitrogen Pte Ltd) and was transferred onto PVDF membrane (BioRad Pte Ltd). The membrane was probed separately using primary antibody specific for acetylated H3, acetylated H4 or acetylated H2A (Upstate Pte Ltd). The detection antibody, goat anti rabbit antibody conjugated with HRP was used according to the manufacturing instruction (Pierce Pte Ltd). After removing the detection antibody from the membrane, an enhanced chemiluminescent substrate for detection of HRP (Pierce Pte Ltd) was added onto the membrane. After removing the substrate, the membrane was exposed to an X-ray film (Kodak) for 1 sec - 20 mins. The X-ray film was developed using the X-ray film processor. The density of each band observed on the developed film could be analysed using UVP Bioimaging software (UVP, Inc, Upland, CA). The values were then normalized against the density of actin in the corresponding samples to obtain the expression of the protein.

acetylated H4 = test: Histone acetylation assay by immuno-blotting, acetylated H4; type: cell-based, human; conditions: Colo205 cells, 0.1, 1, 5 and 10 µM, 24 h, western blot
Method: as §1

HDAC8 enzyme = test: In vitro HDAC assay (BIOMOL fluorescent-based HDAC activity assay), HDAC8; type: biochemical, human
Method: (§3) Expression of GST-HDAC1 or HTGST-HDAC8 was done by infecting SF9 cells (Invitrogen Pte Ltd) with pDEST20-HDAC1 or pFASTBAC-GST-HDAC8 baculovirus at MOI=1 for 48 h. Soluble cell lysate was incubated with pre-equilibrated Glutathione Sepharose 4B beads (Amersham) at 4°C for 2 h. The beads were washed with PBS buffer for 3 times. The GST-HDAC1 protein or GST-HDAC8 protein was eluted by elution buffer containing 50 mM Tris, pH8.0, 150mM NaCl, 1% Triton X-100 and 10mM or 20mM reduced Glutathione. The purified GST-HDAC1 protein or purified GST-HDAC8 protein was dialyzed with HDAC storage buffer containing 10mM Tris, pH7.5, 100mM NaCl and 3mM MgCl2. 20% Glycerol was added to purified GST-HDAC1 protein or purified GST-HDAC8 before storage at -80°C.

Colo205 = test: Cell-based proliferation assay (cyquant), Colo205; set-up: species or system human;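 further: Colo205 cells exposed for 96 h to a range of compound concentrations, growth read by CyQUANT, GI50 taken from plotted dose-response curves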
Method: as §2

acetylated H3 = test: Histone acetylation assay by immuno-blotting, acetylated H3; type: cell-based, human; conditions: Colo205 cells, 0.1, 1, 5 and 10 µM, 24 h, western blot
Method: as §1

HCT116 = test: Cell-based proliferation assay (cyquant), HCT116; conditions: Homo sapiens, HCT-116; Table 5; Free base
Method: as §2

A549 = test: Cell-based proliferation assay (cyquant), A549; conditions: Homo sapiens, Table 5, Free base
Method: as §2

HDAC3 = test: In vitro HDAC assay, HDAC3; type: biochemical; conditions: Table 5; Free base
Method: The assay has been carried, out in 96 well format and the BIOMOL fluorescent-based HDAC activity assay has been applied. […] Flur de lys Developer was added and the reaction was incubated for 10 min. Briefly, deacetylation of the substrate sensitizes it to the developer, which then generates a fluorophore (symbol). The fluorophore is excited with 360 nm light and the emitted light (460 nm) is detected on a fluorometric plate reader (Tecan Ultra Microplate detection system, Tecan Group Ltd.).
The analytical software, Prism 3.0 has been used to generate IC50 from a series of data.

MDA-MB231 = test: Cell-based proliferation assay (cyquant), MDA-MB231; conditions: Homo sapiens, MDA-MB-231; Table 5; Free base
Method: as §2

HDAC1 enzyme = HDAC1 enzyme (Homo sapiens, UniProt Q13547); test: In vitro HDAC assay (BIOMOL fluorescent-based HDAC activity assay), HDAC1; type: biochemical
HDAC1 enzyme, sequence (Q13547 whole entry): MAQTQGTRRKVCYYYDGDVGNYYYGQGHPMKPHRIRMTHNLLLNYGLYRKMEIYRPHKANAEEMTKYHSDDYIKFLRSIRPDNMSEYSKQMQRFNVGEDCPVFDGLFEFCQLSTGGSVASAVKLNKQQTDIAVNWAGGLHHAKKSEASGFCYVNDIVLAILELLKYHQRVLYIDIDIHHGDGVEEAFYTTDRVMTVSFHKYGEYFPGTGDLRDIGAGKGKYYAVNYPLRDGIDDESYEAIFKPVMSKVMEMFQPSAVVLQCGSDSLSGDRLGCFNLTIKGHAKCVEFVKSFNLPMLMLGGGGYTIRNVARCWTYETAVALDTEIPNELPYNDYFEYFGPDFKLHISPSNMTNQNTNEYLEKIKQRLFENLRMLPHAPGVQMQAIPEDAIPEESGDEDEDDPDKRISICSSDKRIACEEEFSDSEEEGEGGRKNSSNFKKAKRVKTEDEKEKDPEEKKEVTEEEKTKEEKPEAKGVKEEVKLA
Method: as §3

[1] = Homo sapiens, MDA-MB-435, Table 4, 96 h treatment
[2] = Table 3, read-out: HDAC8 Enzyme Activity IC50
[3] = Homo sapiens, COLO 205, 96 h, Table 4, 96 h treatment
[4] = Homo sapiens, MDA-MB-435, Table 5, Free base
[5] = Homo sapiens, COLO 205, Table 5, Free base
[6] = Homo sapiens, COLO 205, Table 5, Salt of CF3COOH
[7] = Homo sapiens, COLO 205, Table 4, 96 h treatment
[8] = Table 5, Free base, read-out: IC50 (HDAC8)
[9] = Table 3, read-out: HDAC1 Enzyme Activity IC50
[10] = Table 5, Salt of CF3COOH, read-out: IC50 (HDAC1)

Compound	GI50 (MDA-MB435; [1])	IC50 (HDAC8 enzyme; [2])	GI50 (Colo205; [3])	GI50 (Colo205; [7])	further results
CC(Cc1nc2cc(/C=C/C(=O)NO)ccc2n1CCCO)c1ccccc1 (stereo not drawn) [Compound 1, N-Hydroxy-3-[1-(3-hydroxy-propyl)-2-(2-phenyl-propyl)-1H-benzimidazol-5-yl]-acrylamide]	1640 nM	119 nM	520 nM		Histone acetylation activities Histone-2A (acetylated H2A): Active; Histone acetylation activities Histone-4 (acetylated H4): Active; Histone acetylation activities Histone-3 (acetylated H3): Active
COc1cc(Cn2c(CCc3ccccc3)nc3cc(/C=C/C(=O)NO)ccc32)cc(OC)c1OC [Compound 2, N-Hydroxy-3-[1-(3,4,5-trimethoxybenzyl)-2-(2-phenyl-ethyl)-1H-benzimidazol-5-yl]-acrylamide]	320 nM	355 nM	430 nM		GI50 (MDA-MB435; [4]): 300 nM; Histone acetylation activities Histone-2A (acetylated H2A): Active; GI50 (HCT116): 400 nM; Histone acetylation activities Histone-4 (acetylated H4): Active; GI50 (Colo205; [5]): 400 nM; GI50 (Colo205; [6]): 400 nM; GI50 (A549): 300 nM; IC50 (HDAC3): 64 nM; GI50 (MDA-MB231): 500 nM; Histone acetylation activities Histone-3 (acetylated H3): Active
COc1cc(-c2nc3cc(/C=C/C(=O)NO)ccc3n2CCCO)ccc1OCc1ccccc1 [Compound 4, N-Hydroxy-3-[2-(4-benzyloxy-3-methoxy-phenyl)-1-(3-hydroxy-propyl)-1H-benzimidazole-5-yl]-acrylamide]	25700 nM	790 nM	29900 nM		
O=C(/C=C/c1ccc2c(c1)nc(-c1ccncc1)n2CCCO)NO [Compound 11, N-Hydroxy-3-[1-(3-hydroxy-propyl)-2-(4-pyridyl)-1H-benzimidazol-5-yl]-acrylamide]	> 100000 nM	161 nM		> 100000 nM	
O=C(/C=C/c1ccc2c(c1)nc(CCc1ccccc1)n2Cc1cccnc1)NO [Compound 12, N-Hydroxy-3-[1-(3-pyridylmethyl)-2-(2-phenyl-ethyl)-1H-benzimidazol-5-yl]-acrylamide]	1070 nM	202 nM		380 nM	Histone acetylation activities Histone-4 (acetylated H4): Active; Histone acetylation activities Histone-3 (acetylated H3): Active
O=C(/C=C/c1ccc2c(c1)nc(CCc1ccccc1)n2CCCO)NO [Compound 14, N-Hydroxy-3-[1-(3-hydroxy-propyl)-2-phenethyl-1H-benzimidazol-5-yl]-acrylamide]	5990 nM	251 nM	3070 nM		
CN(C)CC(C)(C)Cn1c(CCc2ccccc2)nc2cc(/C=C/C(=O)NO)ccc21 [Compound 17, N-Hydroxy-3-[1-(3-Dimethylamino-2,2-dimethyl-proppyl)-2-phenethyl-1H-benzimidazol-5-yl]-acrylamide]	560 nM	353 nM	60 nM		GI50 (MDA-MB435; [4]): 600 nM; Histone acetylation activities Histone-2A (acetylated H2A): Active; GI50 (HCT116): 300 nM; Histone acetylation activities Histone-4 (acetylated H4): Active; IC50 (HDAC8 enzyme; [8]): 353 nM; GI50 (Colo205; [5]): 60 nM; GI50 (Colo205; [6]): 110 nM; GI50 (Colo205; Homo sapiens, COLO 205, Table 5, Salt of HCl): 60 nM; GI50 (Colo205; Homo sapiens, COLO 205, Table 5, Salt of Methane sulfonic acid): 40 nM; IC50 (HDAC1 enzyme; [9]): 24 nM; IC50 (HDAC1 enzyme; [10]): 24 nM; GI50 (A549): 200 nM; GI50 (MDA-MB231): 700 nM; Histone acetylation activities Histone-3 (acetylated H3): Active
O=C(/C=C/c1ccc2c(c1)nc(-c1ccsc1)n2CCCO)NO [Compound 20, N-Hydroxy-3-[1-(3-hydroxy-propyl)-2-thiophen-3-yl-1H-benzimidazol-5-yl]-acrylamide]	37200 nM	537 nM	30900 nM		
CC(C)Cc1nc2cc(/C=C/C(=O)NO)ccc2n1CCCO [Compound 21, N-Hydroxy-3-[1-(3-hydroxy-propyl)-2-isobutyl-1H-benzimidazol-5-yl]-acrylamide]	30300 nM	238 nM	25900 nM		
CCCCCCCCc1nc2cc(/C=C/C(=O)NO)ccc2n1CCCO [Compound 23, N-Hydroxy-3-[1-(3-hydroxy-propyl)-2-octyl-1H-benzimidazol-5-yl]-acrylamide]	3720 nM	402 nM	3650 nM		
O=C(/C=C/c1ccc2c(c1)nc(CCc1ccccc1)n2CCc1cccnc1)NO [Compound 27, N-Hydroxy-3-(2-phenethyl-1-(2-pyridin-3-yl-ethyl)-1H-benzimidazol-5-yl]-acrylamide]	3440 nM	329 nM		2230 nM	
O=C(/C=C/c1ccc2c(c1)nc(CCc1ccccc1)n2CCCN1CCCC1=O)NO [Compound 30, N-Hydroxy-3-{1-[3-(2-oxo-pyrrolidin-1-yl)-propyl]-2-phenethyl-1H-benzimidazol-5-yl}-acrylamide]	19800 nM	724 nM	11400 nM		
O=C(/C=C/c1ccc2c(c1)nc(CCc1ccccc1)n2Cc1ccccc1)NO [Compound 33, N-Hydroxy-3-(1-Benzyl-2-phenethyl-1H-benzimidazol-5-yl)-acrylamide]	3380 nM	1450 nM	1540 nM		
O=C(/C=C/c1ccc2c(c1)ncn2Cc1ccccc1)NO [Compound 35, N-Hydroxy-3-(1-Benzyl-1H-benzimidazol-5-yl)-acrylamide]	6760 nM	412 nM	1890 nM		
O=C(/C=C/c1ccc2c(c1)ncn2CCc1ccccn1)NO [Compound 42, N-Hydroxy-3-[1-(2-pyridin-2-yl-ethyl)-1H-benzimidazol-5-yl]-acrylamide]	15800 nM			14400 nM	
CCn1c(C)nc2cc(/C=C/C(=O)NO)ccc21 [Compound 43, N-Hydroxy-3-(1-Ethyl-2-methyl-1H-benzimidazol-5-yl]-acrylamide]	8620 nM	192 nM		9180 nM	
COc1cc(Cn2c(CCc3ccccc3)nc3cc(CCC(=O)NO)ccc32)cc(OC)c1OC [Compound 45]					GI50 (MDA-MB435; Table 4, 96 h treatment): 1900 nM; GI50 (Colo205; Table 4, 96 h treatment, read-out: GI50 (Colo 205)): 2410 nM; IC50 (HDAC1 enzyme; [9]): 167 nM
Cn1c(CCc2ccccc2)nc2cc(/C=C/C(=O)NO)ccc21 [Compound 48, N-Hydroxy-3-(1-methyl-2-phenethyl-1H-benzimidazol-5-yl)-acrylamide]	1780 nM		1450 nM		
O=C(/C=C/c1ccc2[nH]c(CCc3ccccc3)nc2c1)NO [Compound 50, N-Hydroxy-3-(2-phenethyl-1H-benzimidazol-5-yl)-acrylamide]	5190 nM		4290 nM		
Cn1c(CCCc2ccccc2)nc2cc(/C=C/C(=O)NO)ccc21 [Compound 52, N-Hydroxy-3-[1-methyl-2-(3-phenyl-propyl)-1H-benzimidazol-5-yl]-acrylamide]	3580 nM			2040 nM	
CN(C)CCCCn1c(CCc2ccccc2)nc2cc(/C=C/C(=O)NO)ccc21 [Compound 57, N-Hydroxy-3-[1-(4-dimethylamino-butyl)-2-phenethyl-1H-benzimidazol-5-yl]-acrylamide]	1390 nM		1110 nM		
Cn1c(CNCc2ccccc2)nc2cc(/C=C/C(=O)NO)ccc21 [Compound 60, N-Hydroxy-3-[2-(benzylamino-methyl)-1-methyl-1H-benzimidazol-5-yl]-acrylamide]	3600 nM			2470 nM	
O=C(/C=C/c1ccc2c(c1)nc(CCc1ccccc1)n2CCN1CCCCC1)NO [Compound 67, N-Hydroxy-3-[2-phenethyl-1-(piperidin-1-yl-ethyl)-1H-benzimidazol-5-yl]-acrylamide]			80 nM		GI50 (MDA-MB435; [4]): 190 nM; Histone acetylation activities Histone-2A (acetylated H2A): Active; GI50 (HCT116): 60 nM; Histone acetylation activities Histone-4 (acetylated H4): Active; IC50 (HDAC8 enzyme; [8]): 254 nM; GI50 (Colo205; [5]): 90 nM; GI50 (Colo205; [6]): 90 nM; IC50 (HDAC1 enzyme; [10]): 39 nM; GI50 (A549): 80 nM; IC50 (HDAC3): 56 nM; GI50 (MDA-MB231): 60 nM; Histone acetylation activities Histone-3 (acetylated H3): Active
